This note sets out measurements from patent US6906078B2, “Method of using (H+/K+) ATPase inhibitors as antiviral agents” (Pharmacia Corporation, priority 1994, dated 2005).

Broadly, the melting point is the temperature, or range, at which the solid turns liquid.

The target in data set [1] is T1, (H+/K+)-ATPase (Canis lupus familiaris, UniProt P50996).
T1 construct: The microsomes retained at the 15%-30% sucrose interface, after centrifugation at 250,000×g for sixty minutes, were used as the source of (H^+/K^+)-ATPase; from tissue; host or cells: gastric glandular mucosa of mongrel dogs (microsomal fraction, lyophilized)
T1 sequence (P50996 whole entry): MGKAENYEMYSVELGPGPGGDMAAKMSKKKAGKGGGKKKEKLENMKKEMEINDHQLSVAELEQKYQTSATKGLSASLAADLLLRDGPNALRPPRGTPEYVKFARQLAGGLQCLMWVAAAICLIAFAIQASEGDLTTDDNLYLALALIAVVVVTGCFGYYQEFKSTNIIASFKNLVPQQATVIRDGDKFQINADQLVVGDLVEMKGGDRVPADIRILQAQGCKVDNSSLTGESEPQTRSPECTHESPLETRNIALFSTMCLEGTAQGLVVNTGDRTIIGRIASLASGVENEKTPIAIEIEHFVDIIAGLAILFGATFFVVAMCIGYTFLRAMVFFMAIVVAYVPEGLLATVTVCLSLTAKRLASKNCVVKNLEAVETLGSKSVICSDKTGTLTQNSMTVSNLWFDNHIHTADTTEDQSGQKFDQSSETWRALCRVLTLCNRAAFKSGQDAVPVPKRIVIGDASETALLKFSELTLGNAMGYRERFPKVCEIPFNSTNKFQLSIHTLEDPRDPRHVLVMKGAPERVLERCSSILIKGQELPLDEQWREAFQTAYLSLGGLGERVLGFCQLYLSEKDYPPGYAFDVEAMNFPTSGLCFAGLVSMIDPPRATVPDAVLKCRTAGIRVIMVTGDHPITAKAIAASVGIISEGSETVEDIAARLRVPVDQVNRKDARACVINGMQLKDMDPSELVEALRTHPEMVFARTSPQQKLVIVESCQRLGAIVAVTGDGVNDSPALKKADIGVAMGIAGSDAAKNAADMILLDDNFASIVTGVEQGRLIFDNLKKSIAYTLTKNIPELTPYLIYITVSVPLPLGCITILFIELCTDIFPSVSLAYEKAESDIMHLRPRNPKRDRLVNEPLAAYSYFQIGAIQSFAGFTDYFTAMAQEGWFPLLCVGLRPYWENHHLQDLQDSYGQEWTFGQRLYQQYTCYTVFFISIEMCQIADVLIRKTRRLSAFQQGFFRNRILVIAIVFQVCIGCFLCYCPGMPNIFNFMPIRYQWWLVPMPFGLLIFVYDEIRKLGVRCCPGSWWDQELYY
T1 sequence (P33704 whole entry partner): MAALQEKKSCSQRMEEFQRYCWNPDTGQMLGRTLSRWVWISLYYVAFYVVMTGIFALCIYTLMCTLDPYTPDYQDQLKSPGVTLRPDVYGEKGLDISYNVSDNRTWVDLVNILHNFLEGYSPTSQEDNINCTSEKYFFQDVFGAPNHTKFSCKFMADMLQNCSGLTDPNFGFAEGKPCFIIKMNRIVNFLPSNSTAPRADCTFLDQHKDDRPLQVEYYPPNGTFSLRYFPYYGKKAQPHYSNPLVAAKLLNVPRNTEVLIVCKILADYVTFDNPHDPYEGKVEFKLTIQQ
The data set can be described thus: Inhibition of (H+/K+)-ATPase from canine gastric mucosa (inorganic phosphate release). It counts as biochemical. The conditions noted are these: canine gastric mucosa microsomes, pH 6.0, 30 min preincubation at 37° C.; read-out: (H+/K+)-ATPase IC50. The protocol:
Mongrel dogs weighing 15 to 25 kilograms were fasted for twenty-four hours, with water provided ad libitum. The animals were anesthetized with pentobarbital and the stomachs were removed. Subsequent tissue manipulations and subcellular fractionations were performed at 0° C. to 4° C. After the stomachs were cut open and rinsed with tap water, the antral and cardiac regions were removed and the remaining tissue was rinsed three times in saline. The glandular mucosa was removed mechanically, chopped finely in a medium containing 10 mM Tris hydrochloride (pH 7.4) and 250 mM sucrose, and homogenized. The homogenate was centrifuged at 20,000×g for twenty minutes and the pellet discarded. The supernatant was then centrifuged at 150,000×g for ninety minutes and the supernatant discarded. The pellet was resuspended in the Tris-HCl/sucrose medium by homogenization. Part (2 ml) of the resultant microsomal suspension was layered onto a step gradient consisting of 9 ml of 15% sucrose above 12 ml of 30% sucrose, each sucrose solution being buffered with 10 mM Tris hydrochloride (pH 7.4) containing 0.01% sodium azide. The microsomes retained at the 15%-30% sucrose interface, after centrifugation at 250,000×g for sixty minutes, were used as the source of (H^+/K^+)-ATPase. Microsomal preparations were lyophilized, a process that assured potassium ion permiability, and stored at −10° C. until used.
(H^+/K^+)-ATPase activity for each test compound was determined, in duplicate, by measuring the release of inorganic phosphate, which was assayed according to the method of J. ChandraRajan and L. Klein, Anal. Biochem., 72 , 407 (1976). The (H^+/K^+)-ATPase assay medium consisted of 20 mm mes-Tris (pH 6.0), 5 mM magnesium chloride, 25 mM sucrose, and 4 mM Tris-ATP with or without 20 mM potassium chloride in a total volume of 2 ml. Microsomal suspensions (20 to 60 mcl, containing about 25 mcg protein) were added to the assay medium, without Tris-ATP, and then preincubated with a test compound for thirty minutes at 37° C. The assay was initiated by adding Tris-ATP and the mixture was incubated another thirty minutes at 37° C. A 200-mcl aliquot of the assay mixture was then added to 1.4 ml of a solution consisting of 0.1 M sodium acetate (pH 4.0) and 10% sodium dodecylsulfate, followed by the addition of 200 mcl each of 1% ammonium molybdate and 1% ascorbic acid. At least fifteen minutes later, the optical absorbance at 870 nm (which was proportional to inorganic phosphate concentration up to 100 nmoles per tube, as determined by a standard curve) was obtained. Enzyme activity was linear with incubation time.
(H^+/K^+)-ATPase activity is represented by the difference between the measured activities in the presence of potassium-ion (K^+-stimulated) and in the absence of potassium ion (basal).

On to `Nc1ccc(C[S+]([O-])c2nc3ccccc3[nH]2)cn1` (stereo not drawn) [Example 111, 5-[(1H-Benzimidazol-2-ylsulfinyl)methyl]-2-pyridinamine ¼ hydrate], for which the IC50 in data set [1] amounted to 34.8 µM. In the case of `Cc1ccc2[nH]c([S+]([O-])Cc3ccc(C)c(C)c3N)nc2c1` (stereo not drawn) [Example 63, 2-[[(5-Methyl-1H-benzimidazol-2-yl)sulfinyl]-methyl]-5,6-dimethylbenzenamine hemihydrate], in data set [1], the IC50 amounted to 0.71 µM. `CNc1ccccc1CSc1nc2ccccc2[nH]1` [Example 31, 2-[(1H-Benzimidazol-2-ylthio)methyl]-N-methylbenzenamine] showed a melting point of 109 to 112 °C.

In the case of `COc1ccc2[nH]c(SCc3ccccc3N)nc2c1` [Example 11, 2-[[(5-methoxy-1H-benzimidazol-2-yl)thio]methyl]benzenamine], the melting point is 140 to 142 °C. As for `COc1ccc(N)c(CSc2nc3ccccc3[nH]2)c1.Cl.Cl`, the melting point lay within 206 to 208 °C. Regarding `Cc1ccc(C)c(C[S+]([O-])c2nc3cc(C(F)(F)F)ccc3[nH]2)c1N` (stereo not drawn) [Example 65], the IC50 in data set [1] stood at 1.5 µM. As to `Cc1cccc2[nH]c([S+]([O-])Cc3cccc(N)n3)nc12` (stereo not drawn) [Example 87, 6-[[(4-Methyl-1H-benzimidazol-2-yl)-sulfinyl]methyl]-2-pyridinamine], the IC50 in data set [1] amounted to 2.2 µM. On to `Nc1ccc(C(F)(F)F)cc1CSc1nc2ccccc2[nH]1` [Example 48, 2-[(1H-Benzimidazol-2-ylthio)methyl]-4-(trifluoromethyl)benzenamine], for which the melting point was in the range of 130 to 137 °C.

As for `Nc1cc(Cl)ccc1CSc1nc2ccccc2[nH]1` [Example 17, 2-[(1H-Benzimidazol-2-ylthio)methyl]-5-chlorobenzenamine], the melting point was in the range of 158 to 160.5 °C. Same read-out and setting: with `CCOC(=O)c1ccc(N)c(CSc2nc3cc(OC)ccc3[nH]2)c1` [Example 72, Ethyl 4-amino-3-[[(5-methoxy-1H-benzimidazol-2-yl)thio]methyl]benzoate] the figure was 140 to 146 °C. `Cc1cccc(CSc2nc3ccccc3[nH]2)c1N` [Example 27, 2-[(1H-Benzimidazol-2-ylthio)methyl]-6-methylbenzenamine] showed a melting point of 130 to 134 °C. Turning to `Cc1cc(C)c(N)c(C[S+]([O-])c2nc3ccccc3[nH]2)c1` (stereo not drawn) [Example 30, 2-[(1H-Benzimidazol-2-ylsulfinyl)methyl]-4,6-dimethylbenzenamine hemihydrate], the IC50 in data set [1] amounted to 0.85 µM. In the case of `COc1cc2nc([S+]([O-])Cc3cc(C)ccc3N)[nH]c2cc1OC` (stereo not drawn) [Example 75], in data set [1], the IC50 was 120 µM. On to `COc1ccc2[nH]c(SCc3cccc(C)c3N)nc2c1` [Example 35, 2-[[(5-methoxy-1H-benzimidazol-2-yl)thio]methyl]-6-methylbenzenamine], for which the melting point was 132 to 134 °C. For `CCOc1ccc2[nH]c([S+]([O-])Cc3cccc(N)n3)nc2c1` (stereo not drawn) [Example 97, 6-[[(5-Ethoxy-1H-benzimidazol-2-yl)-sulfinyl]methyl]-2-pyridinamine], the IC50 in data set [1] amounted to 3.1 µM. For the compound `Cc1ccc(C[S+]([O-])c2nc3ccccc3[nH]2)c(N)c1C` (stereo not drawn) (hydrate or solvate) [Example 53, 2-[(1H-Benzimidazol-2-ylsulfinyl)methyl]-5,6-dimethylbenzenamine ¼ hydrate], the melting point is 160 °C (dec.).

On to `Cc1cc(N)c(C[S+]([O-])c2nc3ccccc3[nH]2)c(C)c1C` (stereo not drawn) [Example 77, 2-[(1H-Benzimidazol-2-ylsulfinyl)methyl]-3,4,5-trimethylbenzenamine hemihydrate], for which the IC50 in data set [1] came to 16 µM. `CCOC(=O)c1ccc(N)c(CSc2nc3ccccc3[nH]2)c1` [Example 70, Ethyl 4-amino-3-[(1H-benzimidazol-2-ylthio)methyl]benzoate] displayed a melting point of 174 to 176 °C. The same measure, in the same setting: with `CNc1ccccc1C[S+]([O-])c1nc2ccccc2[nH]1.O` (stereo not drawn) (hydrate or solvate) [Example 32, 2-[(1H-Benzimidazol-2-ylsulfinyl)methyl]-N-methylbenzenamine monohydrate] the figure was 117 to 120 °C. `Nc1cccc(C[S+]([O-])c2nc3cc(C(F)(F)F)ccc3[nH]2)n1` (stereo not drawn) [Example 95, 6-[[[5-(Trifluoromethyl)-1H-benzimidazol-2-yl]sulfinyl]methyl]-2-pyridinamine]: in data set [1], the IC50 was found to be 6.95 µM.

On to `Cc1ccc(C)c(C[S+]([O-])c2nc3ccccc3[nH]2)c1N` (stereo not drawn) [Example 55, 2-[(1H-Benzimidazol-2-ylsulfinyl)methyl]-3,6-dimethylbenzenamine monohydrate], for which the IC50 in data set [1] was 0.82 µM.

In turn, `CN(C)c1ccccc1CSc1nc2ccccc2[nH]1` [Example 1, 2-[(1H-Benzimidazol-2-ylthio)methyl]-N,N-dimethylbenzenamine] displayed a melting point of 167 to 170 °C. `Cc1cccc2[nH]c(SCc3ccccc3N)nc12` [Example 7, 2-[[(4-Methyl-1H-benzimidazol-2-yl)thio]methyl]benzenamine] registered a melting point of 125 to 127 °C. `Cc1cc(C)c2nc([S+]([O-])Cc3cccc(N)n3)[nH]c2c1` (stereo not drawn) [Example 103, 6-[[(4,6-Dimethyl-1H-benzimidazol-2-yl)-sulfinyl]methyl]-2-pyridinamine]: the IC50 in data set [1] worked out at 1.8 µM. On to `Cc1cc2nc([S+]([O-])Cc3cccc(N)n3)[nH]c2cc1C` (stereo not drawn) [Example 101, 6-[[(5,6-Dimethyl-1H-benzimidazol-2-yl)-sulfinyl]methyl]-2-pyridinamine], for which the IC50 in data set [1] was found to be 0.72 µM. For `Cc1ccc(C)c(C[S+]([O-])c2nc3ccccc3[nH]2)c1N.O` (stereo not drawn) (hydrate or solvate) [Example 55, 2-[(1H-Benzimidazol-2-ylsulfinyl)methyl]-3,6-dimethylbenzenamine monohydrate], the melting point was 144 to 145 °C.

Turning to `Nc1cccc(C[S+]([O-])c2nc3cc(CO)ccc3[nH]2)n1` (stereo not drawn) [Example 105, 6-[[[5-(Hydroxymethyl)-1H-benzimidazol-2-yl]sulfinyl]methyl]-2-pyridinamine ¼ hydrate], the IC50 in data set [1] amounted to 9.5 µM. For the compound `COc1cc(Cl)c(C)c(CSc2nc3ccccc3[nH]2)c1N` [Example 58, 2-[(1H-Benzimidazol-2-ylthio)methyl]-4-chloro-6-methoxy-3-methylbenzenamine], the melting point is ~ 100 °C. In turn, `Cc1cc2nc([S+]([O-])Cc3ccccc3N)[nH]c2cc1C` (stereo not drawn) (hydrate or solvate) [Example 10, 2-[[(5,6-Dimethyl-1H-benzimidazol-2-yl)sulfinyl]methyl]benzenamine ¼ hydrate] had a melting point of 179 to 181 °C.

As for `CC(C)(C)CNc1cccc(C[S+]([O-])c2nc3ccccc3[nH]2)n1` (stereo not drawn) [Example 107, 6-[(1H-Benzimidazol-2-ylsulfinyl)methyl]-N-(2,2-dimethylpropyl)-2-pyridinamine ¼ hydrate], the IC50 in data set [1] turned out to be 9.1 µM.

`Cc1cccc(N)c1C[S+]([O-])c1nc2ccccc2[nH]1` (stereo not drawn) (hydrate or solvate) [Example 24, 2-[(1H-Benzimidazol-2-ylsulfinyl)methyl]-3-methylbenzenamine ¼ hydrate] had a melting point of 152 to 153 °C. With `Nc1ccc(Cl)cc1CSc1nc2ccccc2[nH]1` [Example 15, 2-[(1H-Benzimidazol-2-ylthio)methyl]-4-chlorobenzenamine], the melting point lay in the range of 114 to 118 °C.

For the compound `COc1cccc(C[S+]([O-])c2nc3cc(C(F)(F)F)ccc3[nH]2)c1N` (stereo not drawn) [Example 67], the IC50 in data set [1] amounted to 8.5 µM. With `Cc1ccc2[nH]c([S+]([O-])Cc3cccc(N)n3)nc2c1` (stereo not drawn) [Example 89, 6-[[(5-Methyl-1H-benzimidazol-2-yl)-sulfinyl]methyl]-2-pyridinamine], the IC50 in data set [1] turned out to be 1.68 µM. For `Nc1cccc(C[S+]([O-])c2nc3cc(Cl)ccc3[nH]2)n1` (stereo not drawn) [Example 93, 6-[[(5-Chloro-1H-benzimidazol-2-yl)-sulfinyl]methyl]-2-pyridinamine], the IC50 in data set [1] worked out at 6.9 µM. As for `COc1cc2nc([S+]([O-])Cc3cccc(N)n3)[nH]c2cc1OC` (stereo not drawn) [Example 99, 6-[[(5,6-Dimethoxy-1H-benzimidazol-2-yl)-sulfinyl]methyl]-2-pyridinamine ¼ hydrate], the IC50 in data set [1] came out at 23.7 µM.
